Data taken from patent publication US6630500B2, “Selected fused pyrrolocarbazoles” (Cephalon, Inc., priority 2000, dated 2003).

Columns and labels:
Type in all cases: biochemical
MLK2 = molecular target: T1, MLK2 (Homo sapiens, UniProt Q02779); assay: Inhibition of Mixed Lineage Kinase-2 (MLK2) activity; details: 100 μM ATP; for IC50: values without % sign; for inhibition at 0.1 µM: 100 nM compound
T1 construct: fused on or other part: GST tag
Experimental: (§1) The kinase activity of MLK1 was assessed using the Millipore Multiscreen TCA “in-plate” format as described for protein kinase C (Pitt & Lee, J. Biomol. Screening, 1: 47-51, 1996). Briefly, each 50-μl assay mixture contained 20 mM Hepes, pH 7.2, 5 mM EGTA, 15 mM MgCl2, 25 mM β-glycerophosphate, 60 μM ATP, 0.25 μCi [γ-^32P]ATP, 0.1% BSA, 500 μ/ml myelin basic protein (UBI #13-104), 2% DMSO, 1 μM of test compound, and 1 μg/ml of baculoviral GST-MLK1KD. Samples were incubated for 15 min at 37° C. The reaction was stopped by adding ice cold 50% TCA and the proteins were allowed to precipitate for 30 min at 4° C. The plates were then washed with ice cold 25% TCA. Supermix scintillation cocktail was added, and the plates were allowed to equilibrate for 1-2 hours prior to counting using the Wallac MicroBeta 1450 PLUS scintillation counter.
(§2) Assays were performed using the Millipore Multiscreen plate format as described for MLK1. Each 50-μl assay mixture contained 20 mM Hepes, pH 7.2, 5 mM EGTA, 15 mM MgCl2, 25 mM β-glycerophosphate, 100 μM ATP, 0.25 μCi [γ-^32P]ATP, 0.1% BSA, 500 μg/ml myelin basic protein (UBI #13-104), 2% DMSO, various concentrations of test compound, and 3 μg/ml of baculoviral GST-MLK2KDLZ. Samples were incubated for 15 min. at 37° C. The reaction was stopped by adding ice cold 50% TCA and the proteins were allowed to precipitate for 30 min at 4° C. The plates were then washed with ice cold 25% TCA. Supermix scintillation cocktail was added, and the plates were allowed to equilibrate for 1-2 hours prior to counting.

[1] = molecular target: T2, VEGF receptor (human flk-1, KDR, VEGFR2) kinase domain (Homo sapiens, UniProt P35968); assay: Inhibition of VEGF receptor kinase activity (ELISA); details: 40 μM ATP; for IC50: values without % sign
T2 construct: VEGF receptor (human flk-1, KDR, VEGFR2) kinase domain; made in house
T2 sequence (P35968 834-1162 limits assumed): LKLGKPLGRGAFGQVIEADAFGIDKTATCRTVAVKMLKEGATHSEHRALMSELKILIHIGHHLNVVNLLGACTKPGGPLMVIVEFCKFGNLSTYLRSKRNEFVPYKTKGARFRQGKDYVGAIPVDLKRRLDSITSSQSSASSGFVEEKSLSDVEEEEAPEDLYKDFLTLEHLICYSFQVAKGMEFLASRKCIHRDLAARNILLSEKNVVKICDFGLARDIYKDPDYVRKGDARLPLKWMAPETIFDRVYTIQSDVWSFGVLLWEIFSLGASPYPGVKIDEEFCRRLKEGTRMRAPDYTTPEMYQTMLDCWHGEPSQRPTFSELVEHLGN
Experimental: Fused pyrrolocarbazole compounds were examined for their inhibitory effects on the kinase activity of baculovirus-expressed VEGF receptor (human flk-1, KDR, VEGFR2) kinase domain using the procedure described for the trkA kinase ELISA assay described below. The kinase reaction mixture, consisting of 50 mM Hepes, pH 7.4, 40 μM ATP, 10 mM MnCl2, 0.1% BSA, 2% DMSO, and various concentrations of inhibitor, was transferred to PLC-γ/GST-coated plates. VEGFR kinase was added and the reaction was allowed to proceed for 15 min. at 37° C. Detection of phosphorylated product was accomplished by addition of anti-phosphotyrosine antibody (UBI). A secondary enzyme-conjugated antibody was delivered to capture the antibody-phosphorylated PLC-γ/GST complex. The activity of the bound enzyme was measured via an amplified detection system (Gibco-BRL). Inhibition data were analyzed using the sigmoidal dose-response (variable slope) equation in GraphPad Prism.
Selected isomeric fused pyrrolocarbazole and isoindolone compounds can be tested for their ability to inhibit the kinase activity of baculovirus-expressed human trkA cytoplasmic domain using an ELISA-based assay as previously described (Angeles et al., Anal. Biochem. 236: 49-55, 1996). Briefly, the 96-well microtiter plate is coated with substrate solution (recombinant human phospholipase C-γl/glutathione S-transferase fusion protein (Rotin et al., EMBO J., 11: 559-567, 1992). Inhibition studies are performed in 100 μl assay mixtures containing 50 mM Hepes, pH 7.4, 40 μM ATP, 10 mM MnCl2, 0.1% BSA, 2% DMSO, and various concentrations of inhibitor. The reaction is initiated by addition of trkA kinase and allowed to proceed for 15 minutes at 37° C. An antibody to phosphotyrosine (UBI) is then added, followed by a secondary enzyme-conjugated antibody, alkaline phosphatase-labelled goat anti-mouse IgG (Bio-Rad). The activity of the bound enzyme is measured via an amplified detection system (Gibco-BRL). Inhibition data are analyzed using the sigmoidal dose-response (variable slope) equation in GraphPad Prism.

MLK3 = molecular target: T3, MLK3 (Homo sapiens, UniProt Q16584); assay: Inhibition of Mixed Lineage Kinase-3 (MLK3) activity; details: 100 μM ATP; for IC50: values without % sign
T3 construct: 2 μg/ml of baculoviral GST-MLK3KD; GST (N); made in house
T3 sequence (Q16584 117-379 limits assumed, species assumed): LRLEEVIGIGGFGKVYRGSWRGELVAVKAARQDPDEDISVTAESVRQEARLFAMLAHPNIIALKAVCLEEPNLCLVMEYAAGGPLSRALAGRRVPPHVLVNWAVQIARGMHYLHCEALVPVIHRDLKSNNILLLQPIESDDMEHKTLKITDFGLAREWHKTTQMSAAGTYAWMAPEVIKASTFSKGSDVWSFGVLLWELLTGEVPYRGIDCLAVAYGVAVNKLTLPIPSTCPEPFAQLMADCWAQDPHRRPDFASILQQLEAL
Experimental: as §1
as §2, with “MLK1. Briefly, each” for “MLK1. Each”, “and 2” for “and 3”, “baculoviral GST-MLK3KD. Sample” for “baculoviral GST-MLK2KDLZ. Samples”, “15 min” for “15 min.”

MLK1 = molecular target: T4, MLK1 (Homo sapiens, UniProt P80192); assay: Inhibition of Mixed Lineage Kinase-1 (MLK1) activity; details: 60 μM ATP; for IC50: values without % sign
T4 construct: 1 μg/ml of baculoviral GST-MLK1KD; GST (N); made in house
T4 sequence (P80192 144-412 limits assumed, species assumed): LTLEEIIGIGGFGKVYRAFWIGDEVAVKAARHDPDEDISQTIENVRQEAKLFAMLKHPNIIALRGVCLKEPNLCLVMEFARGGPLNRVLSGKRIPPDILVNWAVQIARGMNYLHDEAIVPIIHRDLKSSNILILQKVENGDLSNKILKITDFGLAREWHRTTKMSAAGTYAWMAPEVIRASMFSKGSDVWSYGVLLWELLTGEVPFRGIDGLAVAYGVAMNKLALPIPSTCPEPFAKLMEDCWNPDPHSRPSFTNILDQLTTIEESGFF
Experimental: The kinase activity of MLK1 was assessed using the Millipore Multiscreen TCA “in-plate” format as described for protein kinase C (Pitt & Lee, J. Biomol. Screening, 1: 47-51, 1996). Briefly, each 50-μl assay mixture contained 20 mM Hepes, pH 7.2, 5 mM EGTA, 15 mM MgCl2, 25 mM β-glycerophosphate, 60 μM ATP, 0.25 μCi [γ-^32P]ATP, 0.1% BSA, 500 μ/ml myelin basic protein (UBI #13-104), 2% DMSO, […], and 1 μg/ml of baculoviral GST-MLK1KD. Samples were incubated for 15 min at 37° C. The reaction was stopped by adding ice cold 50% TCA and the proteins were allowed to precipitate for 30 min at 4° C. The plates were then washed with ice cold 25% TCA. Supermix scintillation cocktail was added, and the plates were allowed to equilibrate for 1-2 hours prior to counting using the Wallac MicroBeta 1450 PLUS scintillation counter.

T1 sequence (Q02779 98-440 limits assumed): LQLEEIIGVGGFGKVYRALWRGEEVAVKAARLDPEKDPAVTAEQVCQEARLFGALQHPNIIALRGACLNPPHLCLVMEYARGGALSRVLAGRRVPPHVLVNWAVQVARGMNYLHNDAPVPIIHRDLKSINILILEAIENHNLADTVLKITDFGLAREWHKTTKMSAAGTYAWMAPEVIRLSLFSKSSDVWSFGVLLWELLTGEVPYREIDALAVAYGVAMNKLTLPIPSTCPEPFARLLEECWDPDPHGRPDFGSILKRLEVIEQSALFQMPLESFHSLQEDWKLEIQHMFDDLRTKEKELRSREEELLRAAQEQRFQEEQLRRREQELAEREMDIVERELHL

| Compound | IC50 (MLK2) | IC50 [1] | IC50 (MLK3) | IC50 (MLK1) | inhibition at 0.1 µM (MLK2) | inhibition at 0.3 µM ([1]; 300 nM compound, read-out: VEGFR2 % inh. @ 300 nM) | inhibition at 0.1 µM (MLK3; 100 nM compound) | inhibition at 0.1 µM (MLK1; 100 nM compound) |
| --- | --- | --- | --- | --- | --- | --- | --- | --- |
| CCOC(C)c1ccc2c(c1)c1c3c(c4c(c1n2CCCO)Cc1ccccc1-4)C(=O)NC3 (single isomer, unassigned) [Compound 12] | 131 nM | 240 nM | 16 nM | 28 nM |  |  |  |  |
| O=C1NCc2c1c1c(c3c2c2ccccc2n3CCO)Cc2ccccc2-1 [A, reference compound] |  | 107 nM | 8 nM | 22 nM | 39% |  |  |  |
| CC(C)CC(N)C(=O)OCCCn1c2ccccc2c2c3c(c4c(c21)Cc1ccccc1-4)C(=O)NC3 (centres unmarked) [C, reference compound] |  |  |  |  | 0% | 17% | 30% | 8% |
| CC[C@@H](C)OCc1ccc2c(c1)c1c3c(c4c(c1n2CCCO)Cc1ccccc1-4)C(=O)NC3 [Compound 5] |  | 12 nM | 16 nM | 27 nM | 45% |  |  |  |
| CC[C@H](C)OCc1ccc2c(c1)c1c3c(c4c(c1n2CCCO)Cc1ccccc1-4)C(=O)NC3 [Compound 6] |  | 19 nM | 19 nM | 38 nM | 51% |  |  |  |
| CCCOCc1ccc2c(c1)c1c3c(c4c(c1n2CCCO)Cc1ccccc1-4)C(=O)NC3 [Compound 8] |  | 13 nM | 13 nM | 19 nM | 76% |  |  |  |
| COC(C)c1ccc2c(c1)c1c3c(c4c(c1n2CCCO)Cc1ccccc1-4)C(=O)NC3 (centres unmarked) [Compound 13] |  | 73 nM | 26 nM | 20 nM | 62% |  |  |  |
| CC(C)OCc1ccc2c(c1)c1c3c(c4c(c1n2CCCOC(=O)CCN)Cc1ccccc1-4)C(=O)NC3 [Compound 20] | 229 nM | 31 nM | 32 nM | 42 nM |  |  |  |  |
| CC(C)OCc1ccc2c(c1)c1c3c(c4c(c1n2CCCOC(=O)CN(C)C)Cc1ccccc1-4)C(=O)NC3 [Compound 22] | 170 nM | 18 nM | 28 nM | 74 nM |  |  |  |  |
| O=C1NCc2c1c1c(c3c2c2cc(CO)ccc2n3CCCO)Cc2ccccc2-1 [Compound 29] |  | 208 nM | 5 nM | 9 nM | 64% |  |  |  |
| CC(C)OCc1ccc2c(c1)c1c3c(c4c(c1n2CCCO)C(CO)c1ccccc1-4)C(=O)NC3 (centres unmarked) [Compound 40] | 86 nM | 16 nM |  | 21 nM |  |  |  |  |
| O=C1NCc2c1c1c(c3c2c2ccccc2n3CCCO)Cc2ccccc2-1 [Compound B, reference compound] |  | 48 nM | 17 nM | 31 nM | 46% |  |  |  |
